Assay results published in ChEMBL document CHEMBL1153670 (Bioorg Med Chem Lett, 1995).

Columns and labels:
[1] = test system: HCT-116; assay: cells; details: Homo sapiens
[2] = test system: HCT-116; assay: Potency relative to paclitaxel in a tubulin polymerization assay in HCT116 cell line; format: functional, Homo sapiens
[3] = test system: HCT-116; assay: In vitro cytotoxicity was determined by inhibition against HCT116 cell line proliferation after 72 hours of incubation; format: cell-based; details: Homo sapiens, HCT-116, 72 h
[4] = test system: M109; assay: In vivo cytotoxicity of intraperitoneally administered compound was determined against ip implanted murine M-109 lung carcinoma; NA means not active; format: organism-based; details: mouse
[5] = test system: M109; assay: In vivo cytotoxicity of intraperitoneally administered compound at dose 4 mg/kg/inj was determined against ip implanted murine M-109 lung carcinoma; format: organism-based; parameters: route intraperitoneal; details: mouse
[6] = test system: M109; assay: In vivo cytotoxicity of intraperitoneally administered compound at dose 6 mg/kg/inj was determined against ip implanted murine M-109 lung carcinoma; format: organism-based; parameters: route intraperitoneal; details: mouse
[7] = test system: M109; assay: In vivo cytotoxicity of intraperitoneally administered compound at dose 1 mg/kg/injection was determined against ip implanted murine M-109 lung carcinoma; format: organism-based; parameters: route intraperitoneal; details: mouse

Row | IC50 [1] [nM] | SMILES | Tubulin polymerization ratio [2] | IC50 [3] [nM] | T/C [4] | T/C [5] [%] | T/C [6] [mg kg-1 injection-1] | T/C [7] [mg kg-1 injection-1]
1 | 2.85 | CC(=O)O[C@H]1C(=O)[C@@]2(C)C([C@H](OC(=O)c3ccccc3)[C@]3(O)C[C@H](OC(=O)[C@H](O)C(C=C(C)C)NC(=O)OC(C)(C)C)C(C)=C1C3(C)C)[C@]1(OC(=O)C3CC3)CO[C@@H]1C[C@@H]2O (stereo not given in full) | 0.36 | 7.7 | Not Active |  |  | 
2 | 0.5 | CCCCC(=O)O[C@@]12CO[C@@H]1C[C@H](O)[C@@]1(C)C(=O)[C@H](OC(C)=O)C3=C(C)[C@@H](OC(=O)[C@H](O)C(NC(=O)c4ccccc4)c4ccccc4)C[C@@](O)([C@@H](OC(=O)c4ccccc4)C12)C3(C)C (stereo not given in full) | 1.04 | 2 |  |  |  | 
3 | > 200 | CC(=O)O[C@H]1C(=O)[C@@]2(C)C([C@H](OC(=O)c3ccccc3)[C@]3(O)C[C@H](OC(=O)[C@H](O)C(NC(=O)c4ccccc4)c4ccccc4)C(C)=C1C3(C)C)[C@]1(O)CO[C@@H]1C[C@@H]2O (stereo not given in full) | 200 | > 1000 |  |  |  | 
4 | 251 | CC(=O)O[C@H]1C(=O)[C@@]2(C)C([C@H](OC(=O)c3ccccc3)[C@]3(O)C[C@H](OC(=O)[C@H](O)C(NC(=O)c4ccccc4)c4ccccc4)C(C)=C1C3(C)C)[C@]1(OC(=O)n3ccnc3)CO[C@@H]1C[C@@H]2O (stereo not given in full) | 263 | 803 |  |  |  | 
5 | 2.3 | CC(=O)O[C@H]1C(=O)[C@@]2(C)C([C@H](OC(=O)c3ccccc3)[C@]3(O)C[C@H](OC(=O)[C@H](O)C(NC(=O)c4ccccc4)c4ccccc4)C(C)=C1C3(C)C)[C@]1(OC(=O)NC3CCC3)CO[C@@H]1C[C@@H]2O (stereo not given in full) | 0.76 | 9.2 |  |  |  | 
6 | 0.48 | CC(=O)O[C@H]1C(=O)[C@@]2(C)C([C@H](OC(=O)c3ccccc3)[C@]3(O)C[C@H](OC(=O)[C@H](O)C(NC(=O)OC(C)(C)C)c4ccco4)C(C)=C1C3(C)C)[C@]1(OC(=O)C3CCC3)CO[C@@H]1C[C@@H]2O (stereo not given in full) | 0.48 | 1.9 | Not Active |  |  | 
7 | 0.5 | CCC(=O)O[C@@]12CO[C@@H]1C[C@H](O)[C@@]1(C)C(=O)[C@H](OC(C)=O)C3=C(C)[C@@H](OC(=O)[C@H](O)C(NC(=O)c4ccccc4)c4ccccc4)C[C@@](O)([C@@H](OC(=O)c4ccccc4)C12)C3(C)C (stereo not given in full) | 1.5 | 2 |  |  |  | 
8 | 0.57 | COC(=O)O[C@@]12CO[C@@H]1C[C@H](O)[C@@]1(C)C(=O)[C@H](OC(C)=O)C3=C(C)[C@@H](OC(=O)[C@H](O)C(NC(=O)c4ccccc4)c4ccco4)C[C@@](O)([C@@H](OC(=O)c4ccccc4)C12)C3(C)C (stereo not given in full) | 0.33 | 2.3 | Not Active |  |  | 
9 | 198 | CC(=O)O[C@H]1C(=O)[C@@]2(C)C([C@H](OC(=O)c3ccccc3)[C@]3(O)C[C@H](OC(=O)[C@H](O)C(NC(=O)c4ccccc4)c4ccccc4)C(C)=C1C3(C)C)[C@]1(OC(=O)c3ccc(F)cc3)CO[C@@H]1C[C@@H]2O (stereo not given in full) | 61 | 790 |  |  |  | 
10 | 0.67 | CCCOC(=O)O[C@@]12CO[C@@H]1C[C@H](O)[C@@]1(C)C(=O)[C@H](OC(C)=O)C3=C(C)[C@@H](OC(=O)[C@H](O)C(NC(=O)c4ccccc4)c4ccccc4)C[C@@](O)([C@@H](OC(=O)c4ccccc4)C12)C3(C)C (stereo not given in full) | 0.76 | 2.6 |  |  |  | 
11 | 0.58 | C/C=C/C(=O)O[C@@]12CO[C@@H]1C[C@H](O)[C@@]1(C)C(=O)[C@H](OC(C)=O)C3=C(C)[C@@H](OC(=O)[C@H](O)C(NC(=O)c4ccccc4)c4ccccc4)C[C@@](O)([C@@H](OC(=O)c4ccccc4)C12)C3(C)C (stereo not given in full) | 0.7 | 2.3 |  |  |  | 
12 | 0.43 | CCOC(=O)O[C@@]12CO[C@@H]1C[C@H](O)[C@@]1(C)C(=O)[C@H](OC(C)=O)C3=C(C)[C@@H](OC(=O)[C@H](O)C(NC(=O)c4ccccc4)c4ccco4)C[C@@](O)([C@@H](OC(=O)c4ccccc4)C12)C3(C)C (stereo not given in full) | 0.4 | 1.5 | Not Active |  |  | 
13 | 0.59 | CCOC(=O)O[C@@]12CO[C@@H]1C[C@H](O)[C@@]1(C)C(=O)[C@H](OC(C)=O)C3=C(C)[C@@H](OC(=O)[C@H](O)C(NC(=O)OC(C)(C)C)c4ccco4)C[C@@](O)([C@@H](OC(=O)c4ccccc4)C12)C3(C)C (stereo not given in full) | 0.3 | 2.95 |  | 144 |  | 
14 | 1.5 | CCCCCC(=O)O[C@@]12CO[C@@H]1C[C@H](O)[C@@]1(C)C(=O)[C@H](OC(C)=O)C3=C(C)[C@@H](OC(=O)[C@H](O)C(NC(=O)c4ccccc4)c4ccccc4)C[C@@](O)([C@@H](OC(=O)c4ccccc4)C12)C3(C)C (stereo not given in full) | 3.4 | 6 |  |  |  | 
15 | 0.6 | CCCOC(=O)O[C@@]12CO[C@@H]1C[C@H](O)[C@@]1(C)C(=O)[C@H](OC(C)=O)C3=C(C)[C@@H](OC(=O)[C@H](O)C(NC(=O)OC(C)(C)C)c4ccco4)C[C@@](O)([C@@H](OC(=O)c4ccccc4)C12)C3(C)C (stereo not given in full) | 0.71 | 3 | Not Active |  |  | 
16 | 0.61 | CC(=O)O[C@H]1C(=O)[C@@]2(C)C([C@H](OC(=O)c3ccccc3)[C@]3(O)C[C@H](OC(=O)[C@H](O)C(C=C(C)C)NC(=O)c4ccccc4)C(C)=C1C3(C)C)[C@]1(OC(=O)C3CC3)CO[C@@H]1C[C@@H]2O (stereo not given in full) | 0.36 | 1.7 | Not Active |  |  | 
17 | 1.25 | CC(=O)O[C@H]1C(=O)[C@@]2(C)C([C@H](OC(=O)c3ccccc3)[C@]3(O)C[C@H](OC(=O)[C@H](O)C(NC(=O)c4ccccc4)c4ccccc4)C(C)=C1C3(C)C)[C@]1(OC(=O)C(C)C)CO[C@@H]1C[C@@H]2O (stereo not given in full) | 0.46 | 5 |  |  |  | 
18 | 1.1 | CC(=O)O[C@H]1C(=O)[C@@]2(C)C([C@H](OC(=O)c3ccccc3)[C@]3(O)C[C@H](OC(=O)[C@H](O)C(NC(=O)c4ccccc4)c4ccccc4)C(C)=C1C3(C)C)[C@]1(OC(=O)C(Cl)(Cl)Cl)CO[C@@H]1C[C@@H]2O (stereo not given in full) | 0.68 | 4 |  |  |  | 

Row | SMILES | IC50 [1] [nM] | Tubulin polymerization ratio [2] | IC50 [3] [nM] | T/C [4] | T/C [5] [%] | T/C [6] [mg kg-1 injection-1] | T/C [7] [mg kg-1 injection-1]
19 | CC(=O)O[C@H]1C(=O)[C@@]2(C)C([C@H](OC(=O)c3ccccc3)[C@]3(O)C[C@H](OC(=O)[C@H](O)C(NC(=O)c4ccccc4)c4ccccc4)C(C)=C1C3(C)C)[C@]1(OC(=O)N3CC3)CO[C@@H]1C[C@@H]2O (stereo not given in full) | 6.5 |  | 15.6 |  |  |  | 
20 | CC(=O)O[C@H]1C(=O)[C@@]2(C)C([C@H](OC(=O)c3ccccc3)[C@]3(O)C[C@H](OC(=O)[C@H](O)C(NC(=O)c4ccccc4)c4ccccc4)C(C)=C1C3(C)C)[C@]1(OC(=O)C3CCC3)CO[C@@H]1C[C@@H]2O (stereo not given in full) | 0.38 | 0.44 | 1.5 | Not Active |  |  | 
21 | CC(=O)O[C@H]1C(=O)[C@@]2(C)C([C@H](OC(=O)c3ccccc3)[C@]3(O)C[C@H](OC(=O)[C@H](O)C(NC(=O)c4ccccc4)c4ccccc4)C(C)=C1C3(C)C)[C@]1(OC(=O)C3CCCC3)CO[C@@H]1C[C@@H]2O (stereo not given in full) | 0.5 | 1.54 | 2 |  |  |  | 
22 | C=CC(=O)O[C@@]12CO[C@@H]1C[C@H](O)[C@@]1(C)C(=O)[C@H](OC(C)=O)C3=C(C)[C@@H](OC(=O)[C@H](O)C(NC(=O)c4ccccc4)c4ccccc4)C[C@@](O)([C@@H](OC(=O)c4ccccc4)C12)C3(C)C (stereo not given in full) | 1.5 | 0.42 | 6 |  |  |  | 
23 | CC(=O)O[C@H]1C(=O)[C@@]2(C)C([C@H](OC(=O)c3ccccc3)[C@]3(O)C[C@H](OC(=O)[C@H](O)C(NC(=O)c4ccccc4)c4ccccc4)C(C)=C1C3(C)C)[C@]1(OC(=O)CF)CO[C@@H]1C[C@@H]2O (stereo not given in full) | 1.75 | 1.2 | 7 |  |  |  | 
24 | CC(=O)O[C@H]1C(=O)[C@@]2(C)C([C@H](OC(=O)c3ccccc3)[C@]3(O)C[C@H](OC(=O)[C@H](O)C(NC(=O)OC(C)(C)C)c4ccco4)C(C)=C1C3(C)C)[C@]1(OC(=O)C3CC3)CO[C@@H]1C[C@@H]2O (stereo not given in full) | 0.33 | 0.33 | 1.3 |  | 100 |  | 
25 | CCOC(=O)O[C@@]12CO[C@@H]1C[C@H](O)[C@@]1(C)C(=O)[C@H](OC(C)=O)C3=C(C)[C@@H](OC(=O)[C@H](O)C(NC(=O)c4ccccc4)c4ccccc4)C[C@@](O)([C@@H](OC(=O)c4ccccc4)C12)C3(C)C (stereo not given in full) | 0.25 | 0.64 | 1 |  |  | 142 | 
26 | CCCC(=O)O[C@@]12CO[C@@H]1C[C@H](O)[C@@]1(C)C(=O)[C@H](OC(C)=O)C3=C(C)[C@@H](OC(=O)[C@H](O)C(NC(=O)OC(C)(C)C)c4ccco4)C[C@@](O)([C@@H](OC(=O)c4ccccc4)C12)C3(C)C (stereo not given in full) | 0.7 | 0.5 | 2.8 |  |  |  | 96
27 | CC(=O)O[C@H]1C(=O)[C@@]2(C)C([C@H](OC(=O)c3ccccc3)[C@]3(O)C[C@H](OC(=O)[C@H](O)C(NC(=O)c4ccccc4)c4ccccc4)C(C)=C1C3(C)C)[C@]1(OC(=O)C3CC3)CO[C@@H]1C[C@@H]2O (stereo not given in full) | 0.25 | 0.24 | 1 |  |  | 188 | 
28 | CC(=O)O[C@H]1C(=O)[C@@]2(C)C([C@H](OC(=O)c3ccccc3)[C@]3(O)C[C@H](OC(=O)[C@H](O)C(NC(=O)c4ccccc4)c4ccccc4)C(C)=C1C3(C)C)[C@]1(OC(=O)c3ccccc3)CO[C@@H]1C[C@@H]2O (stereo not given in full) | 103 | >60 | 410 |  |  |  | 
